Earlier results in patent US5830500A, “Low dose fluoxetine tablet” (Pentech Pharmaceuticals, Inc., priority 1996, dated 1998).

Tested on: premature ejaculation
Details: reported

In the case of `CN(C)CCCN1c2ccccc2CCc2ccc(Cl)cc21` [clomipramine], the side effects is listed as “weight gain, sedation, and anticholinergic effects” and the “success in managing premature ejaculation” value (informal use by a few practitioners) is listed as “Some limited success”.
